Measurements from PubChem BioAssay (NCI).
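Following 48 hours of exposure in 96-well plates, responses at five concentrations were used to interpolate endpoints linearly. TGI: total growth inhibition.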

Experiments:
Experiment in all cases: NCI tumour cell line growth inhibition, 48 h
EKVX NSCLC = system: EKVX NSCLC
KM12 colon = system: KM12 colon
SW-620 colon = system: SW-620 colon
NCI-H460 lung = system: NCI-H460 lung
DMS 114 small cell lung = system: DMS 114 small cell lung
NCI-H522 lung = system: NCI-H522 lung
ACHN renal = system: ACHN renal
HCC-2998 colon = system: HCC-2998 colon
SNB-19 CNS = system: SNB-19 CNS
HOP-18 NSCLC = system: HOP-18 NSCLC
RPMI-8226 leukemia = system: RPMI-8226 leukemia
NCI-H226 lung = system: NCI-H226 lung
DLD-1 colon = system: DLD-1 colon
SK-MEL-28 melanoma = system: SK-MEL-28 melanoma
MALME-3M melanoma = system: MALME-3M melanoma
SNB-75 CNS = system: SNB-75 CNS
M19-MEL melanoma = system: M19-MEL melanoma
A549 NSCLC = system: A549 NSCLC
SF-539 CNS = system: SF-539 CNS
SF-268 CNS = system: SF-268 CNS
XF 498 CNS = system: XF 498 CNS
CAKI-1 renal = system: CAKI-1 renal
HCT-116 colon = system: HCT-116 colon
U251 CNS = system: U251 CNS
786-0 renal = system: 786-0 renal
OVCAR-3 ovarian = system: OVCAR-3 ovarian
UACC-62 melanoma = system: UACC-62 melanoma
COLO 205 colon = system: COLO 205 colon
SK-MEL-5 melanoma = system: SK-MEL-5 melanoma
KM20L2 colon = system: KM20L2 colon
RXF-631 renal = system: RXF-631 renal
SK-OV-3 ovarian = system: SK-OV-3 ovarian
NCI-H23 lung = system: NCI-H23 lung
IGROV1 ovarian = system: IGROV1 ovarian
HOP-62 NSCLC = system: HOP-62 NSCLC
LXFL 529 NSCLC = system: LXFL 529 NSCLC
HT29 colon = system: HT29 colon
DMS 273 small cell lung = system: DMS 273 small cell lung
A498 renal = system: A498 renal
MOLT-4 leukemia = system: MOLT-4 leukemia
SK-MEL-2 melanoma = system: SK-MEL-2 melanoma
CCRF-CEM leukemia = system: CCRF-CEM leukemia
K-562 leukemia = system: K-562 leukemia
UACC-257 melanoma = system: UACC-257 melanoma
OVCAR-5 ovarian = system: OVCAR-5 ovarian
SNB-78 CNS = system: SNB-78 CNS
HCT-15 colon = system: HCT-15 colon
SF-295 CNS = system: SF-295 CNS
LOX IMVI melanoma = system: LOX IMVI melanoma
HL-60(TB) leukemia = system: HL-60(TB) leukemia
OVCAR-8 ovarian = system: OVCAR-8 ovarian
HOP-92 NSCLC = system: HOP-92 NSCLC
TK-10 renal = system: TK-10 renal
OVCAR-4 ovarian = system: OVCAR-4 ovarian
SN12C renal = system: SN12C renal
UO-31 renal = system: UO-31 renal
RXF 393 renal = system: RXF 393 renal
M14 melanoma = system: M14 melanoma

Measured: TGI

CN(C)c1[se]nc2c1c(=O)n(C)c(=O)n2C
not listed: RXF 393 renal | M14 melanoma
> 100 µM: all other assays above

COC(=O)CCC1=NOC(CC2CC(CCC(=O)OC)=NO2)C1 (configuration not stated)
not listed: ACHN renal | SK-MEL-28 melanoma
> 100 µM: all other assays above
